Values after ≈ are worked out from the molar mass of the structure shown.
How the values were obtained:
Test in all cases: MIC, broth microdilution (NCCLS)
Type in all cases: cell-based
[1] = system: E. coli GC2203 (ATCC Control); settings: Escherichia coli, Mueller-Hinton II broth, 18-22 hours at 35° C.
Experimental: (§1) Methods for in Vitro Antibacterial Evaluation
(§2) The Minimum Inhibitory Concentration (MIC)
(§3) Antimicrobial susceptibility testing. The in vitro activities of the antibiotics are determined by the broth microdilution method as recommended by the National Committee for Clinical Laboratory Standards (NCCLS) (1). Mueller-Hinton II broth (MHBII)(BBL Cockeysville, Md.) is the medium employed in the testing procedures. Microtiter plates containing serial dilutions of each antimicrobial agent are inoculated with each organism to yield the appropriate density (10^5 CFU/ml) in a 100 μl final volume. The plates are incubated for 18-22 hours at 35° C. in ambient air.
(§4) 1. NCCLS. 2000. Methods for Dilution Antimicrobial Susceptibility Tests for Bacteria That Grow Aerobically; Approved Standards: M7-A5, vol. 20. National Committe for Clinical Laboratory Standards, Wayne, Pa.

[2] = system: C. albicans GC3066 ATCC (Control); settings: Candida albicans, Mueller-Hinton II broth, 18-22 hours at 35° C.
Experimental: as §1, §2, §3, §4

[3] = system: E. faecalis GC4555 (ATCC Control); settings: Enterococcus faecalis, Mueller-Hinton II broth, 18-22 hours at 35° C.
Experimental: as §1, §2, §3, §4

E. coli GC2270 (tet(M)) = settings: Escherichia coli
Experimental: as §1, §2, §3, §4

[4] = system: S. pneumoniae* GC4465 (Clinical); settings: Streptococcus pneumoniae, Mueller-Hinton II broth, 18-22 hours at 35° C.
Experimental: as §1, §2, §3, §4

[5] = system: S. pyogenes* GC4563 (Clinical); settings: Streptococcus pyogenes, Mueller-Hinton II broth, 18-22 hours at 35° C.
Experimental: as §1, §2, §3, §4

[6] = system: E. coli GC4560 (IMP mutant); settings: Escherichia coli
Experimental: as §1, §2, §3, §4

[7] = system: S. aureus GC1079 (tet(K)); settings: Staphylococcus aureus, Mueller-Hinton II broth, 18-22 hours at 35° C.
Experimental: as §1, §2, §3, §4

E. coli GC1073 (tet(B)) = settings: Escherichia coli
Experimental: as §1, §2, §3, §4

[8] = system: S. aureus GC4536 (Smith MP -In Vivo); settings: Staphylococcus aureus, Mueller-Hinton II broth, 18-22 hours at 35° C.
Experimental: as §1, §2, §3, §4

[9] = system: E. faecalis GC2242 (Van-resistant); settings: Enterococcus faecalis, Mueller-Hinton II broth, 18-22 hours at 35° C.
Experimental: as §1, §2, §3, §4

[10] = system: S. aureus GC2216 (ATCC Control); settings: Staphylococcus aureus, Mueller-Hinton II broth, 18-22 hours at 35° C.
Experimental: as §1, §2, §3, §4

[11] = system: E. coli GC4559 (parent GC4560); settings: Escherichia coli, Mueller-Hinton II broth, 18-22 hours at 35° C.
Experimental: as §1, §2, §3, §4

[12] = system: H. influenzae<> GC6896 (ATCC Control); settings: Haemophilus influenzae, Mueller-Hinton II broth, 18-22 hours at 35° C.
Experimental: as §1, §2, §3, §4

[13] = system: S. pneumoniae* GC1894 (Clinical); settings: Streptococcus pneumoniae, Mueller-Hinton II broth, 18-22 hours at 35° C.
Experimental: as §1, §2, §3, §4

[14] = system: S. aureus GC6466 (tet(M)); settings: Staphylococcus aureus, Mueller-Hinton II broth, 18-22 hours at 35° C.
Experimental: as §1, §2, §3, §4

[15] = system: S. aureus GC1131 (Clinical); settings: Staphylococcus aureus, Mueller-Hinton II broth, 18-22 hours at 35° C.
Experimental: as §1, §2, §3, §4

[16] = system: M. catarrhalis* GC6907 (Clinical); settings: Moraxella catarrhalis, Mueller-Hinton II broth, 18-22 hours at 35° C.
Experimental: as §1, §2, §3, §4

SMILES | MIC [1] [µg/mL] | MIC [2] [µg/mL] | MIC [3] [µg/mL] | MIC (E. coli GC2270 (tet(M))) [µg/mL] | MIC [4] [µg/mL] | MIC [5] [µg/mL] | MIC [6] [µg/mL] | MIC [7] [µg/mL] | MIC (E. coli GC1073 (tet(B))) [µg/mL] | MIC [8] [µg/mL] | MIC [9] [µg/mL] | MIC [10] [µg/mL] | MIC [11] [µg/mL] | MIC [12] [µg/mL] | MIC [13] [µg/mL] | MIC [14] [µg/mL] | MIC [15] [µg/mL] | MIC [16] [µg/mL]
COc1cc(OC)c(-c2nc3cc(N(C)C)c4c(c3o2)C(=O)C2=C(O)[C@]3(O)C(=O)C(C(N)=O)=C(O)[C@@H](N(C)C)[C@@H]3C[C@@H]2C4)c(OC)c1 [Example 15, (6aR,7aS,8S,11aS)-5,8-bis(dimethylamino)-9,11a,12-trihydroxy-11,13-dioxo-2-(2,4,6-trimethoxyphenyl)-6,6a,7,7a,8,11,11a,13-octahydrotetraceno[2,1-d][1,3]oxazole-10-carboxamide] | > 64 | > 64 | 64 (≈ 98.7 µM) | > 64 | > 64 | > 64 | 32 (≈ 49.3 µM) | 64 (≈ 98.7 µM) | > 64 | 64 (≈ 98.7 µM) | 64 (≈ 98.7 µM) | 64 (≈ 98.7 µM) | > 64 | > 64 | > 64 | 64 (≈ 98.7 µM) | 64 (≈ 98.7 µM) | 64 (≈ 98.7 µM)
CCOc1cc(OCC)c(-c2nc3cc(N(C)C)c4c(c3o2)C(=O)C2=C(O)[C@]3(O)C(=O)C(C(N)=O)=C(O)[C@@H](N(C)C)[C@@H]3C[C@@H]2C4)cc1OCC [Example 16, (6aR,7aS,8S,11aS)-5,8-bis(dimethylamino)-9,11a,12-trihydroxy-11,13-dioxo-2-(2,4,5-triethoxyphenyl)-6,6a,7,7a,8,11,11a,13-octahydrotetraceno[2,1-d][1,3]oxazole-10-carboxamide] | > 64 | > 64 | 16 (≈ 23.2 µM) | > 64 | > 64 | 64 (≈ 92.7 µM) | 16 (≈ 23.2 µM) | 16 (≈ 23.2 µM) | > 64 | 16 (≈ 23.2 µM) | 16 (≈ 23.2 µM) | 16 (≈ 23.2 µM) | > 64 | > 64 | > 64 | 16 (≈ 23.2 µM) | 16 (≈ 23.2 µM) | > 64
CN(C)c1cc2nc(-c3cc4ccccc4o3)oc2c2c1C[C@H]1C[C@H]3[C@H](N(C)C)C(O)=C(C(N)=O)C(=O)[C@@]3(O)C(O)=C1C2=O [Example 18, (6aR,7aS,8S,11aS)-2-(1-benzofuran-2-yl)-5,8-bis(dimethylamino)-9,11a,12-trihydroxy-11,13-dioxo-6,6a,7,7a,8,11,11a,13-octahydrotetraceno[2,1-d][1,3]oxazole-10-carboxamide] | > 64 | > 64 | 4 (≈ 6.68 µM) | > 64 | 16 (≈ 26.7 µM) | 16 (≈ 26.7 µM) | 4 (≈ 6.68 µM) | 4 (≈ 6.68 µM) | > 64 | 4 (≈ 6.68 µM) | 4 (≈ 6.68 µM) | 4 (≈ 6.68 µM) | > 64 | > 64 | 16 (≈ 26.7 µM) | 4 (≈ 6.68 µM) | 4 (≈ 6.68 µM) | 8 (≈ 13.4 µM)
CN(C)c1cc2nc(-c3cc4ccccc4n3C)oc2c2c1C[C@H]1C[C@H]3[C@H](N(C)C)C(O)=C(C(N)=O)C(=O)[C@@]3(O)C(O)=C1C2=O [Example 19, (6aR,7aS,8S,11aS)-5,8-bis(dimethylamino)-9,11a,12-trihydroxy-2-(1-methyl-1H-indol-2-yl)-11,13-dioxo-6,6a,7,7a,8,11,11a,13-octahydrotetraceno[2,1-d][1,3]oxazole-10-carboxamide] | > 64 | > 64 | 8 (≈ 13.1 µM) | > 64 | 4 (≈ 6.54 µM) | 8 (≈ 13.1 µM) | 4 (≈ 6.54 µM) | 4 (≈ 6.54 µM) | > 64 | 8 (≈ 13.1 µM) | 4 (≈ 6.54 µM) | 4 (≈ 6.54 µM) | > 64 | > 64 | 4 (≈ 6.54 µM) | 4 (≈ 6.54 µM) | 4 (≈ 6.54 µM) | 16 (≈ 26.2 µM)

Source: patent US20080064667A1, “OXAZOLE DERIVATIVES OF TETRACYCLINES” (Wyeth, priority 2003, published 2008)
